Laboratory results reported in patent US7534766B2, “Glucuronide metabolites and epimers thereof of tigecycline” (Wyeth, priority 2004, dated 2009).

Tests used:
[1] = LC/MS characterization of tigecycline related compounds in human serum, urine and feces; format: in vivo; conditions: in vivo
Excerpt: Three HPLC conditions were used during LC/MS analysis in this study. LC/MS Condition 1 was used for the majority of sample analyses for metabolite characterization and to isolate metabolite M3a from urine. LC/MS Condition 2 was used on selected samples to increase the retention time of glucuronide metabolites and for a co-chromatography experiment to confirm the identity of metabolites M8 and M9. LC/MS Condition 3 was used to analyze the polar metabolite M3a isolated from human urine.
The UV detector was set to monitor 340-360 nm. […] The flow rate was 0.2 mL/min. […] The linear mobile phase gradient is shown below.
Separations were accomplished on a Phenomenex Luna C18(2) column (250×2.0 mm, 5 μm) with a Uniguard C18 guard column (10×2 mm) (ThermoHypersil-Keystone). The flow rate was 0.2 mL/min. […] Mobile phase A was 0.02% trifluoroacetic acid in water (v/v) and mobile phase B was 0.02% trifluoroacetic acid in acetonitrile (v/v). The linear mobile phase gradient is shown below.
A Micromass Quattro Ultima triple quadrupole mass spectrometer (Waters Corp.) was operated in the positive ionization mode. LC/MS analysis with electrospray ionization (ESI) was conducted using a Z-spray interface. ESI-MS analysis of individual fractions from selected samples was conducted by direct infusion into a nanospray interface. Settings for the mass spectrometer are listed below.
Urine and feces samples were analyzed for tigecycline metabolites by LC/MS/MS analysis for precursors of product ions characteristic of tigecycline. Additionally, potential metabolites of tigecycline were searched for in the LC/MS data based upon results from previous studies in animals and humans.
Serum extracts were analyzed for tigecycline and selected metabolites by LC/MS/MS in the selected reaction monitoring (SRM) mode (LC/SRM) to reduce interference from endogenous components. […] The following tigecycline related components were monitored.

[2] = LC/MS detection of tigecycline metabolites in CD-1 mouse serum and urine after intravenous tigecycline; conditions: mouse, in vivo, iv, 5 mg/kg
Method: Fifteen male CD-1 mice, with an average weight of 31.3 g at the time of dosing, were used. Animals were given food and water ad libitum. Mice in the 0.5 and 2 hour blood collection groups were housed in standard cages, while those in the 4 hour blood collection group were housed in metabolism cages for the collection of urine. Mice were dosed by the Bioresources Department at Wyeth Research, Collegeville, Pa.
For mice and rabbits, the intravenous dosing solutions was prepared by dissolving 50 mg of tigecycline in 5.0 mL of 0.9% sterile saline solution to make a working stock solution. The working stock solution was diluted with 0.9% sterile saline solution to 0.5 mg/mL for mice and 4 mg/mL for rabbits. The mouse dose (5 mg/kg, 10 mL/kg) was administered as a bolus injection via the tail vein. The rabbit dose (4 mg/kg, 1 mL/kg) was administered as a bolus injection via the marginal vein of the ear.
For mice (n=5/time point), blood (approximately 0.7 mL) was collected by cardiac puncture at 0.5, 2 and 4 hours following administration of tigecycline. For rabbits, blood (approximately 7 mL) was collected via the ear vein at 0.5, 2 and 6 hours following the tigecycline dose. Serum was separated following clot formation at room temperature and centrifugation for 15 minutes at 4° C. and 3000 rpm. The serum was transferred to a fresh tube and was stored at approximately −70° C. until analysis as described below under “Serum Sample Preparation for LC/MS Analysis. In addition, urine was collected from mice in the 4 hour blood collection group and was stored at approximately −70° C. until analysis, as described below under “Urine Sample Preparation for LC/MS Analysis.”
Mouse urine was thawed and an aliquot (1 mL) transferred to a fresh tube. The sample was centrifuged at 14,000 rpm and room temperature for 10 minutes using a Model 5415C Eppendorf centrifuge (Brinkmann Instruments, Westbury, N.Y.) to remove any particulates. The sample was then transferred to a fresh tube and was analyzed by LC/MS, as described below under “Liquid Chromatography/Mass Spectrometry Analysis.”.
Mouse and rabbit serum samples were pooled at each collection time and analyzed for tigecycline, its epimer, tigecycline glucuronide (M7 and its epimer M6), 9-aminominocycline (M3) and N-acetyl-9-aminominocycline (M9 and its epimer M8). Aliquots of serum (500 μL) were transferred to new tubes and deuterated tigecycline (30 ng/mL final concentration) was added as an internal standard (quantitative analysis only). EDTA (40 μL of 0.5 M EDTA) was added to each sample and the samples vortex mixed. Acetonitrile (500 μL) was added to each sample, samples were vortex mixed and denatured protein separated by centrifugation at 14,000 rpm and room temperature for 10 minutes using a Model 5415C Eppendorf centrifuge (Brinkmann Instruments). The supernatant was transferred to a fresh tube and the solvent evaporated under a stream of nitrogen using a Turbovap Model LV evaporator (Caliper Life Sciences, Hopkinton, Mass.).
The HPLC system used for mass spectrometric analysis was a Waters Alliance Model 2695 HPLC system (Waters Corp., Milford, Mass.). It was equipped with a built-in autosampler and a Model 996 diode array UV detector. The UV detector was set to monitor 210-400 nm. Separations for metabolite characterization were accomplished on a Phenomenex Luna C18(2) column (150×2.1 mm, 5 μm) (Phenomenex, Torrance, Calif.) equipped with a Keystone Uniguard C18 guard column (10×2.1 mm) (Thermo Electron Corp., Bellefonte, Pa.). The column temperature was 25° C. The flow rate was 0.2 mL/min. Mobile phase A was 10 mM ammonium acetate in water and mobile phase B was acetonitrile.

[3] = Tigecycline metabolites identified in CD-1 mouse serum and urine and rabbit serum samples (LC/MS); format: in vivo; conditions: in vivo, iv
Method: The column temperature was 25° C. The flow rate was 0.2 mL/min. […] Gradient 1 was used for metabolite identification (qualitative analysis).
LC/MS analysis was conducted on extracts of serum and from CD-1 mice and rabbits, and on urine from CD-1 mice. The mass spectral data for tigecycline and its metabolites are discussed below.

[4] = in vivo
Method: An open-label, inpatient, multiple-dose tigecycline, single-dose [^14C]tigecycline metabolic disposition and mass balance study was performed in six healthy male volunteers. The clinical protocol called for twelve subjects. Of these twelve, six received the radioactive dose (subjects 1, 4, 5, 6, 7, and 8 with subject 8 later dropping out of the study.) Eligible subjects were selected based on inclusion/exclusion criteria, medical history, physical examination and additional procedures outlined in the study protocol. Each subject received a 100 mg loading dose on the morning of Day 1, followed by a 50 mg maintenance dose every 12 hours for an additional 5 doses. On the morning of study Day 4, six subjects received a single 50 mg dose of [^14C]tigecycline (50 μCi). Each tigecycline dose was administered via a 30-minute intravenous infusion.
Serum samples were collected for metabolite profiling prior to tigecycline dosing and 1, 4, 8, 24 and 48 hours following the [^14C]-labeled dose. For metabolite profiling, urine samples were collected at 0-4, 4-8, 8-24 and 24-48 hours and fecal samples were collected up to 48 hours following the [^14C]-labeled dose. Serum and urine samples, and fecal homogenates were shipped on dry ice to the Biotransformation Division of Drug Safety and Metabolism, Wyeth Research, Collegeville, Pa. The details of the sample collection and sample storage are described in the mass balance portion of the study. The 24-48 hour urine and fecal samples for subject #6 were incomplete since the subject withdrew from the study. While samples from this subject were used for metabolite profiling, the samples were not included in the mass balance calculations.
Urine samples for metabolite profiling were extracted, as discussed below, using a method previously developed and used for rat and dog urine samples. Urine samples that had been collected at various intervals up to 48 hours following the dose of [^14C]tigecycline were thawed on ice prior to extraction. Aliquots (1 mL) of the individual urine samples were transferred to clean tubes and 0.2 M EDTA, for a final concentration of 40 mM EDTA, was added. […] Samples were mixed, centrifuged and the supernatants analyzed for metabolites by HPLC radiochromatography with selected samples also analyzed by LC/MS.
HPLC analyses were performed using a Waters 2695 Alliance Separation Module (Waters Corp., Milford, Mass.), a Waters Model 2487 dual wavelength UV absorbance detector, set to monitor 350 nm, and was in-line with a Gilson 215 liquid handler (Gilson, Middleton, Wis.) equipped to collect fractions at 20 second intervals. Fractions were collected into 96-well deep well Luma plates and analyzed using TopCount NXT. The autosampler temperature was set to 4° C. […]

Compound	relative amount in human serum based on LC/MS data [1]	relative amount in human urine based on LC/MS data [1]	observed in mouse urine by LC/MS [2]	Species and matrix in which identified [3]	percent of the radioactivity in urine [4]
CC(=O)Nc1cc(N(C)C)c2c(c1O)C(=O)C1=C(O)[C@]3(O)C(=O)C(C(N)=O)=C(O)[C@H](N(C)C)[C@@H]3C[C@@H]1C2 (single isomer, unassigned) [Metabolite M8, epimer of N-acetyl-9-aminominocycline]	minor metabolites	minor metabolites			
CN(C)c1cc(N)c(O)c2c1C[C@H]1C[C@H]3[C@H](N(C)C)C(=O)C(C(N)=O)=C(O)[C@@]3(O)C(=O)C1=C2O [Metabolite M3, 9-aminominocycline]	minor metabolites	minor metabolites	detected	R-S, M-S, M-U	
Hydroxy Tigecycline [Metabolite M1]		trace amounts			less than 1%
